From PubChem BioAssay AID1963864 (Molecular Pharmacology Branch, DTP, NCI, 2024)

Test system: KRAS PDC multicell spheroid viability
Assay: Anticancer human tumor 521955-158-R6-J3-PDC patient-derived pancreatic carcinoma cell line growth inhibition [KRAS2]
Conditions: for viability, T/C: stronger effect = lower value
Description: Multicellular complex tumor spheroid response to RAS pathway inhibitors in combination with a targeted agents in patient-derived cell lines with oncogenic KRAS variants from multiple cancer types
A high-throughput screen of multi-cell type tumor spheroids was designed to identify active combinations of targeted small molecules and KRAS pathway inhibitors. Complex spheroids include a stromal component modeled by human endothelial cells (HUVEC) and fibroblasts modeled by human mesenchymal stem cells (MSCs). The concentration ranges selected for each drug and investigational agent were based upon clinically achievable concentrations if the clinical Cmax of the agent was known.
Compounds. The drugs and investigational agents: BI-3406 (NSC825286), BAY-293 (NSC824723), batoprotafib (TNO155; NSC825523), sotorasib (AMG 510; NSC818433), MRTX1257 (NSC819558), elimusertib (BAY 1895344; NSC800525), molibresib (GSK525762; NSC774829), temuterkib (LY3214996; NSC803410), venetoclax (NSC766270), alisertib (NSC759677), olaparib (NSC753686), talazoparib (NSC767125), erdafitinib (NSC781556), ipatasertib (NSC767898), cabozantinib (NSC761068), nintedanib (NSC756659), abemaciclib (NSC768073), docetaxel (NSC628503), trametinib (NSC758246), and sapanisertib (NSC764658) were obtained from the National Cancer Institute (NCI) Developmental Therapeutics Program Chemical Repository. The FDA-approved anticancer drug set is available from the Developmental Therapeutics Program. […] The stock solutions were prepared in dimethyl sulfoxide (DMSO, Sigma-Aldrich, St. Louis, MO, cat. D2650) at 800-fold the tested concentration and stored at -70 degrees C prior to their use. All drugs and investigational agents were tested over a range starting from a high concentration at or near the clinical Cmax and decreasing in half-log increments. If the clinical Cmax for an agent had not been determined, the highest concentration tested was 10 microM.
Cell Culture. All cells were maintained in an incubator at 37 degrees C and 5% CO2 with 95% humidity. The PDC lines were cultured according to standard operating procedures established by the NCI PDMR (https://pdmr.cancer.gov/sops/default.htm). Briefly, all PDCs were thawed and cultured in Matrigel-coated flasks prepared with a working solution of 1X Ham's F-12 nutrient mix, without supplementation (Invitrogen, Waltham, MA, cat. 11765054), 100 U/mL penicillin-streptomycin (Invitrogen, cat. 15140122), and 2.5% Matrigel (Corning Inc., Corning, NY, cat. 354248) for the first three passages. All PDCs were cultured in complete DMEM/F-12 media containing advanced DMEM/F-12 (Invitrogen, cat. 12634028), 4.9% defined fetal bovine serum, heat inactivated (HyClone Laboratories Inc., Logan, UT, cat. SH30070.03HI), 389 ng/mL hydrocortisone (Sigma-Aldrich, cat. H4001), 9.7 ng/mL human EGF recombinant protein (Invitrogen, cat. PHG0313), 23.4 microg/mL adenine (Sigma-Aldrich, cat. A2786), 97.3 U/mL penicillin-streptomycin (Invitrogen, cat. 15140122), 1.9 mM L-glutamine (Invitrogen, cat. 25030081), and 9.7 microM Y-27632 dihydrochloride (Tocris Bioscience, Bristol, United Kingdom, cat. 1254). The PDCs were cultured in complete DMEM/F12 media without 9.7 microM Y-27632 dihydrochloride for at least two passages prior to the screen. The established cell line HOP-62 was cultured in RPMI 1640 medium, HEPES (Invitrogen, cat. 22400105) with 10% defined fetal bovine serum (HyClone Laboratories Inc., cat. SH30070.03) and 2 mM L-glutamine (Invitrogen, cat. 25030081). The pooled donor HUVEC were cultured in endothelial cell growth medium 2 (PromoCell, Heidelberg, Germany, cat. C-22011) and the hMSC were cultured in mesenchymal stem cell growth medium 2 (PromoCell, cat. C-28009). For all experiments, HUVEC and hMSC were used at passages </=5, while the malignant cell lines were used at passages </=15. […]

[1] = curve of first compound, second compound 0.0316 µM
[2] = curve of first compound, second compound 0.1 µM
[3] = curve of first compound, second compound 0.316 µM
[4] = curve of first compound, second compound 1 µM
[5] = curve of first compound, second compound 3.16 µM
[6] = second compound 0.0316 µM, first compound 0.0316 µM
[7] = second compound 0.0316 µM, first compound 0.1 µM
[8] = second compound 0.0316 µM, first compound 0.316 µM
[9] = second compound 0.0316 µM, first compound 1 µM
[10] = second compound 0.0316 µM, first compound 3.16 µM
[11] = second compound 0.0316 µM, first compound 10 µM
[12] = second compound 0.1 µM, first compound 0.0316 µM
[13] = second compound 0.1 µM, first compound 0.1 µM
[14] = second compound 0.1 µM, first compound 0.316 µM
[15] = second compound 0.1 µM, first compound 1 µM
[16] = second compound 0.1 µM, first compound 3.16 µM
[17] = second compound 0.1 µM, first compound 10 µM
[18] = second compound 0.316 µM, first compound 0.0316 µM
[19] = second compound 0.316 µM, first compound 0.1 µM
[20] = second compound 0.316 µM, first compound 0.316 µM
[21] = second compound 0.316 µM, first compound 1 µM
[22] = second compound 0.316 µM, first compound 3.16 µM
[23] = second compound 0.316 µM, first compound 10 µM
[24] = second compound 1 µM, first compound 0.0316 µM
[25] = second compound 1 µM, first compound 0.1 µM
[26] = second compound 1 µM, first compound 0.316 µM
[27] = second compound 1 µM, first compound 1 µM
[28] = second compound 1 µM, first compound 3.16 µM
[29] = second compound 1 µM, first compound 10 µM
[30] = second compound 3.16 µM, first compound 0.0316 µM
[31] = second compound 3.16 µM, first compound 0.1 µM
[32] = second compound 3.16 µM, first compound 0.316 µM
[33] = second compound 3.16 µM, first compound 1 µM
[34] = second compound 3.16 µM, first compound 3.16 µM
[35] = second compound 3.16 µM, first compound 10 µM
[36] = compound alone, run of 08/26/2021
[37] = curve of first compound, second compound 10 µM
[38] = second compound 10 µM, first compound 0.0316 µM
[39] = second compound 10 µM, first compound 0.1 µM
[40] = second compound 10 µM, first compound 0.316 µM
[41] = second compound 10 µM, first compound 1 µM
[42] = second compound 10 µM, first compound 3.16 µM
[43] = second compound 10 µM, first compound 10 µM
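Further: drug exposure lasted seven days.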
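Wherever viability, T/C is given: 100% = DMSO vehicle wells and lower means fewer viable cells.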

CC1(C)CCC(CN2CCN(c3ccc(C(=O)NS(=O)(=O)c4ccc(NCC5CCOCC5)c([N+](=O)[O-])c4)c(Oc4cnc5[nH]ccc5c4)c3)CC2)=C(c2ccc(Cl)cc2)C1 + C=CC(=O)N1CCN(c2nc(OCC3CCCN3C)nc3c2CCN(c2cccc4cccc(C)c24)C3)CC1CC#N
IC50 [1]: 3.86 µM | IC50 [2]: 4.48 µM | IC50 [3]: 2.68 µM | IC50 [4]: 1.92 µM | IC50 [5]: < 0.0316 µM | viability, T/C [6]: 104% | viability, T/C [7]: 97.5% | viability, T/C [8]: 95.6% | viability, T/C [9]: 92.7% | viability, T/C [10]: 57.3% | viability, T/C [11]: 14.4% | viability, T/C [12]: 93.5% | viability, T/C [13]: 97.3% | viability, T/C [14]: 90.6% | viability, T/C [15]: 91.9% | viability, T/C [16]: 64.2% | viability, T/C [17]: 17% | viability, T/C [18]: 92% | viability, T/C [19]: 95.8% | viability, T/C [20]: 101% | viability, T/C [21]: 97.2% | viability, T/C [22]: 42.1% | viability, T/C [23]: 15.4% | viability, T/C [24]: 82.4% | viability, T/C [25]: 78.2% | viability, T/C [26]: 80.1% | viability, T/C [27]: 76.9% | viability, T/C [28]: 29.4% | viability, T/C [29]: 6.62% | viability, T/C [30]: 45.2% | viability, T/C [31]: 48.4% | viability, T/C [32]: 24.2% | viability, T/C [33]: 8.37% | viability, T/C [34]: 0.18% | viability, T/C [35]: 0.23%

COc1cc2nc(C)nc(NC(C)c3cc(N)cc(C(F)(F)F)c3)c2cc1OC1CCOC1 (stereo not drawn)
viability, T/C (compound 0.1 µM): 86.7% [middle of 17 runs] | viability, T/C (compound 0.316 µM): 86.7% [middle of 17 runs] | IC50 [36]: 6.52 µM [middle of 5 runs]

CCNC(=O)CC1N=C(c2ccc(Cl)cc2)c2cc(OC)ccc2-n2c(C)nnc21 (stereo not drawn) + CNCc1ccccc1-c1csc(C(C)Nc2nc(C)nc3cc(OC)c(OC)cc23)c1
IC50 [2]: > 10 µM | IC50 [3]: > 10 µM | IC50 [4]: > 10 µM | IC50 [5]: < 0.0316 µM | IC50 [37]: < 0.0316 µM | viability, T/C [12]: 96.3% | viability, T/C [13]: 90.5% | viability, T/C [14]: 67.6% | viability, T/C [15]: 69.5% | viability, T/C [16]: 68.1% | viability, T/C [17]: 73.8% | viability, T/C [18]: 82.3% | viability, T/C [19]: 71.9% | viability, T/C [20]: 72.4% | viability, T/C [21]: 61% | viability, T/C [22]: 65.8% | viability, T/C [23]: 69.5% | viability, T/C [24]: 71.3% | viability, T/C [25]: 62% | viability, T/C [26]: 61.6% | viability, T/C [27]: 62.8% | viability, T/C [28]: 74.3% | viability, T/C [29]: 73% | viability, T/C [30]: 0.29% | viability, T/C [31]: 0.34% | viability, T/C [32]: 0.34% | viability, T/C [33]: 0.43% | viability, T/C [34]: 0.28% | viability, T/C [35]: 0.8% | viability, T/C [38]: 0.2% | viability, T/C [39]: 0.18% | viability, T/C [40]: 0.16% | viability, T/C [41]: 0.17% | viability, T/C [42]: 0.21% | viability, T/C [43]: 0.28%

COc1cc(Nc2ncc3c(n2)-c2ccc(Cl)cc2C(c2c(F)cccc2OC)=NC3)ccc1C(=O)O + C=CC(=O)N1CCN(c2nc(=O)n(-c3c(C)ccnc3C(C)C)c3nc(-c4c(O)cccc4F)c(F)cc23)C(C)C1
IC50 [2]: > 10 µM | IC50 [3]: > 10 µM | IC50 [4]: > 10 µM | IC50 [5]: > 10 µM | IC50 [37]: > 10 µM | viability, T/C [12]: 109% | viability, T/C [13]: 103% | viability, T/C [14]: 102% | viability, T/C [15]: 92.6% | viability, T/C [16]: 89.1% | viability, T/C [17]: 89.8% | viability, T/C [18]: 100% | viability, T/C [19]: 108% | viability, T/C [20]: 99.4% | viability, T/C [21]: 79.6% | viability, T/C [22]: 82.9% | viability, T/C [23]: 82.1% | viability, T/C [24]: 93.2% | viability, T/C [25]: 103% | viability, T/C [26]: 94.7% | viability, T/C [27]: 95.6% | viability, T/C [28]: 86.3% | viability, T/C [29]: 80.5% | viability, T/C [30]: 91.3% | viability, T/C [31]: 89.9% | viability, T/C [32]: 77.4% | viability, T/C [33]: 78.6% | viability, T/C [34]: 84.6% | viability, T/C [35]: 79% | viability, T/C [38]: 71.5% | viability, T/C [39]: 77.9% | viability, T/C [40]: 70.6% | viability, T/C [41]: 62.4% | viability, T/C [42]: 54.2% | viability, T/C [43]: 58.3%

CCNC(=O)CC1N=C(c2ccc(Cl)cc2)c2cc(OC)ccc2-n2c(C)nnc21 (stereo not drawn) + C=CC(=O)N1CCN(c2nc(OCC3CCCN3C)nc3c2CCN(c2cccc4cccc(C)c24)C3)CC1CC#N
IC50 [1]: > 10 µM | IC50 [2]: > 10 µM | IC50 [3]: > 10 µM | IC50 [4]: > 10 µM | IC50 [5]: 0.101 µM | viability, T/C [6]: 106% | viability, T/C [7]: 87.1% | viability, T/C [8]: 64.3% | viability, T/C [9]: 74.9% | viability, T/C [10]: 83.2% | viability, T/C [11]: 76.6% | viability, T/C [12]: 88.6% | viability, T/C [13]: 102% | viability, T/C [14]: 78.4% | viability, T/C [15]: 69.3% | viability, T/C [16]: 73.1% | viability, T/C [17]: 75.9% | viability, T/C [18]: 101% | viability, T/C [19]: 93.2% | viability, T/C [20]: 76% | viability, T/C [21]: 74.5% | viability, T/C [22]: 77.1% | viability, T/C [23]: 69.2% | viability, T/C [24]: 86.6% | viability, T/C [25]: 83.9% | viability, T/C [26]: 77.8% | viability, T/C [27]: 62.2% | viability, T/C [28]: 69.6% | viability, T/C [29]: 81% | viability, T/C [30]: 47% | viability, T/C [31]: 53.1% | viability, T/C [32]: 30.5% | viability, T/C [33]: 1.65% | viability, T/C [34]: 31% | viability, T/C [35]: 35.1%

CNCc1ccccc1-c1csc(C(C)Nc2nc(C)nc3cc(OC)c(OC)cc23)c1 (stereo not drawn)
viability, T/C (compound 0.1 µM): 84.1% [middle of 16 runs] | viability, T/C (compound 0.316 µM): 79% [middle of 16 runs] | viability, T/C (compound 10 µM): 0.23% [middle of 15 runs] | IC50 [36]: 1.48 µM [middle of 5 runs] | IC50 (compound alone, run of 09/02/2021): 1.4 µM [middle of 5 runs]
